In patent US12545639B2, “3-substituted phenylamidine compounds, preparation and use thereof” (PI INDUSTRIES LTD., priority 2019, dated 2026):

Legend:
Alternaria solani = Alternaria solani (early blight of tomato/potato) in vitro test, radial growth on potato dextrose agar; assay type: cell-based; conditions: 168 h, 300 ppm in potato dextrose agar, 25° C., 60% relative humidity, seven days, read-out: control compared to the untreated check (radial growth)
Pyricularia oryzae = experiment: microbe, parasite or virus in culture; assay type: cell-based; conditions: 168 h, read-out: control compared to the untreated check (radial growth)
Phakopsora pachyrhizi = Phakopsora pachyrhizi test in soybean, preventive, in vivo on plants; conditions: in Glycine max, read-out: Efficacy (% control), disease severity compared to the untreated check
Rhizoctonia solani = Rhizoctonia solani (rice sheath blight/potato black scurf) in vitro test, radial growth on potato dextrose agar; assay type: cell-based; conditions: 168 h, 300 ppm in potato dextrose agar, 25° C., 60% relative humidity, seven days, read-out: control compared to the untreated check (radial growth)
Botrytis cinerea = Botrytis cinerea (gray mold) in vitro test, radial growth on potato dextrose agar; assay type: cell-based; conditions: 168 h, 300 ppm in potato dextrose agar, 22° C., 90% relative humidity, seven days, read-out: control compared to the untreated check (radial growth)
[1] = system: Septoria lycopersici/Corynespora cassicola (CORYCA); experiment: Septoria lycopersici/Corynespora cassicola (CORYCA) (leaf spot of tomato) in vitro test, radial growth on potato dextrose agar; assay type: cell-based; conditions: 168 h, 300 ppm in potato dextrose agar, 25° C., 70% relative humidity, seven days, read-out: control compared to the untreated check (radial growth)
Colletotrichum capsici = Colletotrichum capsici (anthracnose) in vitro test, radial growth on potato dextrose agar; assay type: cell-based; conditions: Colletotrichum truncatum, 168 h; 300 ppm in potato dextrose agar; 25° C., 60% relative humidity, seven days; read-out: control compared to the untreated check (radial growth)

CCN(C)C=Nc1cc(F)cc(Cc2cccc(Br)c2)c1C [Compound 205, N′-(3-(3-bromobenzyl)-5-fluoro-2-methylphenyl)-N-ethyl-N-methylformimidamide]
≥ 70%: inhibition of growth at 300 ppm (Alternaria solani) | inhibition of growth at 300 ppm (Pyricularia oryzae) | pest or weed control at 500 ppm (Phakopsora pachyrhizi) | inhibition of growth at 300 ppm (Rhizoctonia solani) | inhibition of growth at 300 ppm (Botrytis cinerea) | inhibition of growth at 300 ppm [1]

CCN(C)C=Nc1cc(F)cc(Cc2ccccc2)c1C [Compound 149, N′-(3-benzyl-5-fluoro-2-methylphenyl)-N-ethyl-N-methylformimidamide]
≥ 70%: inhibition of growth at 300 ppm (Alternaria solani) | inhibition of growth at 300 ppm (Pyricularia oryzae) | pest or weed control at 500 ppm (Phakopsora pachyrhizi) | inhibition of growth at 300 ppm (Rhizoctonia solani) | inhibition of growth at 300 ppm (Botrytis cinerea) | inhibition of growth at 300 ppm [1]

CCN(C)C=Nc1cc(F)cc(Nc2ccc3ncsc3c2)c1C [Compound 225, N′-(3-(benzo[d]thiazol-6-ylamino)-5-fluoro-2-methylphenyl)-N-ethyl-N-methylformimidamide]
≥ 70%: inhibition of growth at 300 ppm (Colletotrichum capsici) | inhibition of growth at 300 ppm (Alternaria solani) | inhibition of growth at 300 ppm (Pyricularia oryzae)

CCN(C)C=Nc1cc(C)cc(N(C)c2cccc(C)c2F)c1Cl [Compound 139, N′-(2-chloro-3-((2-fluoro-3-methylphenyl)(methyl)amino)-5-methylphenyl)-N-ethyl-N-methylformimidamide]
≥ 70%: inhibition of growth at 300 ppm (Colletotrichum capsici) | inhibition of growth at 300 ppm (Pyricularia oryzae)

CCN(C)C=Nc1cc(F)cc(Cc2ccccc2Br)c1C [Compound 151, N′-(3-(2-bromobenzyl)-5-fluoro-2-methylphenyl)-N-ethyl-N-methylformimidamide]
≥ 70%: inhibition of growth at 300 ppm (Alternaria solani) | inhibition of growth at 300 ppm (Pyricularia oryzae) | pest or weed control at 500 ppm (Phakopsora pachyrhizi) | inhibition of growth at 300 ppm (Rhizoctonia solani) | inhibition of growth at 300 ppm (Botrytis cinerea) | inhibition of growth at 300 ppm [1]

CCN(C)C=Nc1cc(F)cc(Nc2cccc(F)c2)c1C [Compound 29, N-ethyl-N′-(5-fluoro-3-((3-fluorophenyl)amino)-2-methylphenyl)-N-methylformimidamide]
≥ 70%: inhibition of growth at 300 ppm (Alternaria solani) | inhibition of growth at 300 ppm (Pyricularia oryzae) | pest or weed control at 500 ppm (Phakopsora pachyrhizi) | inhibition of growth at 300 ppm (Rhizoctonia solani) | inhibition of growth at 300 ppm (Botrytis cinerea) | inhibition of growth at 300 ppm [1]

CCN(C)C=Nc1cc(F)cc(Nc2ccc(OC)c(F)c2)c1C [Compound 254, N-ethyl-N′-(5-fluoro-3-((3-fluoro-4-methoxyphenyl)amino)-2-methylphenyl)-N-methylformimidamide]
≥ 70%: inhibition of growth at 300 ppm (Colletotrichum capsici) | inhibition of growth at 300 ppm (Alternaria solani) | inhibition of growth at 300 ppm (Pyricularia oryzae) | inhibition of growth at 300 ppm (Rhizoctonia solani)

CCN(C)C=Nc1cc(F)cc(Cc2cccc(F)c2)c1C [Compound 147, N-ethyl-N′-(5-fluoro-3-(3-fluorobenzyl)-2-methylphenyl)-N-methylformimidamide]
≥ 70%: inhibition of growth at 300 ppm (Alternaria solani) | inhibition of growth at 300 ppm (Pyricularia oryzae) | pest or weed control at 500 ppm (Phakopsora pachyrhizi) | inhibition of growth at 300 ppm (Rhizoctonia solani) | inhibition of growth at 300 ppm (Botrytis cinerea) | inhibition of growth at 300 ppm [1]

CCN(C)C=Nc1cc(C)cc(N(C)c2ccccc2F)c1C [Compound 7, N-ethyl-N′-(3-((2-fluorophenyl)(methyl)amino)-2,5-dimethylphenyl)-N-methylformimidamide]
≥ 70%: inhibition of growth at 300 ppm (Colletotrichum capsici) | inhibition of growth at 300 ppm (Alternaria solani) | inhibition of growth at 300 ppm (Pyricularia oryzae) | inhibition of growth at 300 ppm (Rhizoctonia solani)

CCN(C)C=Nc1cc(F)cc(Cc2cccc(C)c2)c1C [Compound 146, N-ethyl-N′-(5-fluoro-2-methyl-3-(3-methylbenzyl)phenyl)-N-methylformimidamide]
≥ 70%: inhibition of growth at 300 ppm (Alternaria solani) | inhibition of growth at 300 ppm (Pyricularia oryzae) | pest or weed control at 500 ppm (Phakopsora pachyrhizi) | inhibition of growth at 300 ppm (Rhizoctonia solani) | inhibition of growth at 300 ppm (Botrytis cinerea) | inhibition of growth at 300 ppm [1]

CCN(C)C=Nc1cc(C)cc(Cc2ccccc2)c1Cl [Compound 70, N′-(3-benzyl-2-chloro-5-methylphenyl)-N-ethyl-N-methylformimidamide]
≥ 70%: inhibition of growth at 300 ppm (Alternaria solani) | inhibition of growth at 300 ppm (Pyricularia oryzae) | pest or weed control at 500 ppm (Phakopsora pachyrhizi) | inhibition of growth at 300 ppm (Rhizoctonia solani) | inhibition of growth at 300 ppm (Botrytis cinerea) | inhibition of growth at 300 ppm [1]

CCN(C)C=Nc1cc(F)cc(Cc2ccc(Cl)c(F)c2)c1C [Compound 206, N′-(3-(4-chloro-3-fluorobenzyl)-5-fluoro-2-methylphenyl)-N-ethyl-N-methylformimidamide]
≥ 70%: inhibition of growth at 300 ppm (Alternaria solani) | inhibition of growth at 300 ppm (Pyricularia oryzae) | pest or weed control at 500 ppm (Phakopsora pachyrhizi) | inhibition of growth at 300 ppm (Rhizoctonia solani) | inhibition of growth at 300 ppm (Botrytis cinerea) | inhibition of growth at 300 ppm [1]

CCN(C)C=Nc1cc(F)cc(Cc2cc(F)cc(OC)c2)c1C [Compound 237, N-ethyl-N′-(5-fluoro-3-(3-fluoro-5-methoxybenzyl)-2-methylphenyl)-N-methylformimidamide]
≥ 70%: inhibition of growth at 300 ppm (Alternaria solani) | inhibition of growth at 300 ppm (Pyricularia oryzae) | pest or weed control at 500 ppm (Phakopsora pachyrhizi) | inhibition of growth at 300 ppm (Rhizoctonia solani) | inhibition of growth at 300 ppm (Botrytis cinerea) | inhibition of growth at 300 ppm [1]

CCN(C)C=Nc1cc(F)cc(Nc2cccc(C(F)(F)F)n2)c1C [Compound 273, N-ethyl-N′-(5-fluoro-2-methyl-3-((6-(trifluoromethyl)pyridin-2-yl)amino)phenyl)-N-methylformimidamide]
≥ 70%: inhibition of growth at 300 ppm (Alternaria solani) | inhibition of growth at 300 ppm (Pyricularia oryzae) | pest or weed control at 500 ppm (Phakopsora pachyrhizi) | inhibition of growth at 300 ppm (Rhizoctonia solani) | inhibition of growth at 300 ppm (Botrytis cinerea) | inhibition of growth at 300 ppm [1]

CCN(C)C=Nc1cc(C)cc(Cc2cccc(F)c2)c1Cl [Compound 22, N′-(2-chloro-3-(3-fluorobenzyl)-5-methylphenyl)-N-ethyl-N-methylformimidamide]
≥ 70%: inhibition of growth at 300 ppm (Alternaria solani) | inhibition of growth at 300 ppm (Pyricularia oryzae) | pest or weed control at 500 ppm (Phakopsora pachyrhizi) | inhibition of growth at 300 ppm (Rhizoctonia solani) | inhibition of growth at 300 ppm (Botrytis cinerea) | inhibition of growth at 300 ppm [1]

CCN(C)C=Nc1cc(F)cc(Cc2cccc([N+](=O)[O-])c2)c1C [Compound 259, N-ethyl-N′-(5-fluoro-2-methyl-3-(3-nitrobenzyl)phenyl)-N-methylformimidamide]
≥ 70%: inhibition of growth at 300 ppm (Alternaria solani) | inhibition of growth at 300 ppm (Pyricularia oryzae) | pest or weed control at 500 ppm (Phakopsora pachyrhizi) | inhibition of growth at 300 ppm (Rhizoctonia solani) | inhibition of growth at 300 ppm (Botrytis cinerea) | inhibition of growth at 300 ppm [1]

CCN(C)C=Nc1cc(Cl)cc(Nc2ccccc2OC(F)(F)F)c1C [Compound 301, N′-(5-chloro-2-methyl-3-((2-(trifluoromethoxy)phenyl)amino)phenyl)-N-ethyl-N-methylformimidamide]
≥ 70%: inhibition of growth at 300 ppm (Alternaria solani) | inhibition of growth at 300 ppm (Pyricularia oryzae) | pest or weed control at 500 ppm (Phakopsora pachyrhizi) | inhibition of growth at 300 ppm (Rhizoctonia solani) | inhibition of growth at 300 ppm (Botrytis cinerea) | inhibition of growth at 300 ppm [1]

CCN(C)C=Nc1cc(C)cc(Nc2ccc(F)cc2F)c1Cl [Compound 75, N′-(2-chloro-3-((2,4-difluorophenyl)amino)-5-methylphenyl)-N-ethyl-N-methylformimidamide]
≥ 70%: inhibition of growth at 300 ppm (Colletotrichum capsici) | inhibition of growth at 300 ppm (Alternaria solani) | inhibition of growth at 300 ppm (Pyricularia oryzae) | inhibition of growth at 300 ppm (Rhizoctonia solani)

CCN(C)C=Nc1cc(Cl)cc(N(C)c2ccccc2C)c1C [Compound 191, N′-(5-chloro-2-methyl-3-(methyl(o-tolyl)amino)phenyl)-N-ethyl-N-methylformimidamide]
≥ 70%: inhibition of growth at 300 ppm (Alternaria solani) | inhibition of growth at 300 ppm (Pyricularia oryzae) | pest or weed control at 500 ppm (Phakopsora pachyrhizi) | inhibition of growth at 300 ppm (Rhizoctonia solani) | inhibition of growth at 300 ppm (Botrytis cinerea) | inhibition of growth at 300 ppm [1]

CCN(C)C=Nc1cc(F)cc(N(C)c2c(C)cccc2F)c1C [Compound 145, N-ethyl-N′-(5-fluoro-3-((2-fluoro-6-methylphenyl)(methyl)amino)-2-methylphenyl)-N-methylformimidamide]
≥ 70%: inhibition of growth at 300 ppm (Alternaria solani) | inhibition of growth at 300 ppm (Pyricularia oryzae) | pest or weed control at 500 ppm (Phakopsora pachyrhizi) | inhibition of growth at 300 ppm (Rhizoctonia solani) | inhibition of growth at 300 ppm (Botrytis cinerea) | inhibition of growth at 300 ppm [1]

CCN(C)C=Nc1cc(Cl)cc(Nc2cccc(C(F)(F)F)n2)c1C [Compound 274, N′-(5-chloro-2-methyl-3-((6-(trifluoromethyl)pyridin-2-yl)amino)phenyl)-N-ethyl-N-methylformimidamide]
≥ 70%: inhibition of growth at 300 ppm (Alternaria solani) | inhibition of growth at 300 ppm (Pyricularia oryzae) | pest or weed control at 500 ppm (Phakopsora pachyrhizi) | inhibition of growth at 300 ppm (Rhizoctonia solani) | inhibition of growth at 300 ppm (Botrytis cinerea) | inhibition of growth at 300 ppm [1]

CCN(C)C=Nc1cc(OC)cc(Cc2cccc(C(F)(F)F)c2)c1C [Compound 296, N-ethyl-N′-(5-methoxy-2-methyl-3-(3-(trifluoromethyl)benzyl)phenyl)-N-methylformimidamide]
≥ 70%: inhibition of growth at 300 ppm (Alternaria solani) | inhibition of growth at 300 ppm (Pyricularia oryzae) | pest or weed control at 500 ppm (Phakopsora pachyrhizi) | inhibition of growth at 300 ppm (Rhizoctonia solani) | inhibition of growth at 300 ppm (Botrytis cinerea) | inhibition of growth at 300 ppm [1]

CCN(C)C=Nc1cc(F)cc(Cc2ccccc2C)c1C [Compound 148, N-ethyl-N′-(5-fluoro-2-methyl-3-(2-methylbenzyl)phenyl)-N-methylformimidamide]
≥ 70%: inhibition of growth at 300 ppm (Alternaria solani) | inhibition of growth at 300 ppm (Pyricularia oryzae) | pest or weed control at 500 ppm (Phakopsora pachyrhizi) | inhibition of growth at 300 ppm (Rhizoctonia solani) | inhibition of growth at 300 ppm (Botrytis cinerea) | inhibition of growth at 300 ppm [1]
